This note sets out measurements from publication PMC10536065 (ACS Omega, 2023).

Series [1] deals with T1, Type I collagen (Bos taurus, UniProt P02453+P02465). The series is described as follows: ELISA saturation binding to collagen. The arrangement: species or system bovine.
A short description of series [2]: Circular dichroism spectroscopy. The class given is physicochemical. The following applies: NaCl, MgCl2, CaCl2; 10 μM peptide. (CD spectra are sensitive to the conformation of chiral molecules.)
Series [3] addresses T1, Type I collagen. Briefly: Inhibition of cCBD-LL37 binding to collagen by cCBD. The arrangement: species or system bovine. The following applies: 500 nM cCBD-LL37 with 0–500 nM cCBD, 1 h room temperature; n = 4.

Entries after “also recorded” stand apart in the source; their conditions may differ.

T1 sequence (P02453 162-1217 limits assumed): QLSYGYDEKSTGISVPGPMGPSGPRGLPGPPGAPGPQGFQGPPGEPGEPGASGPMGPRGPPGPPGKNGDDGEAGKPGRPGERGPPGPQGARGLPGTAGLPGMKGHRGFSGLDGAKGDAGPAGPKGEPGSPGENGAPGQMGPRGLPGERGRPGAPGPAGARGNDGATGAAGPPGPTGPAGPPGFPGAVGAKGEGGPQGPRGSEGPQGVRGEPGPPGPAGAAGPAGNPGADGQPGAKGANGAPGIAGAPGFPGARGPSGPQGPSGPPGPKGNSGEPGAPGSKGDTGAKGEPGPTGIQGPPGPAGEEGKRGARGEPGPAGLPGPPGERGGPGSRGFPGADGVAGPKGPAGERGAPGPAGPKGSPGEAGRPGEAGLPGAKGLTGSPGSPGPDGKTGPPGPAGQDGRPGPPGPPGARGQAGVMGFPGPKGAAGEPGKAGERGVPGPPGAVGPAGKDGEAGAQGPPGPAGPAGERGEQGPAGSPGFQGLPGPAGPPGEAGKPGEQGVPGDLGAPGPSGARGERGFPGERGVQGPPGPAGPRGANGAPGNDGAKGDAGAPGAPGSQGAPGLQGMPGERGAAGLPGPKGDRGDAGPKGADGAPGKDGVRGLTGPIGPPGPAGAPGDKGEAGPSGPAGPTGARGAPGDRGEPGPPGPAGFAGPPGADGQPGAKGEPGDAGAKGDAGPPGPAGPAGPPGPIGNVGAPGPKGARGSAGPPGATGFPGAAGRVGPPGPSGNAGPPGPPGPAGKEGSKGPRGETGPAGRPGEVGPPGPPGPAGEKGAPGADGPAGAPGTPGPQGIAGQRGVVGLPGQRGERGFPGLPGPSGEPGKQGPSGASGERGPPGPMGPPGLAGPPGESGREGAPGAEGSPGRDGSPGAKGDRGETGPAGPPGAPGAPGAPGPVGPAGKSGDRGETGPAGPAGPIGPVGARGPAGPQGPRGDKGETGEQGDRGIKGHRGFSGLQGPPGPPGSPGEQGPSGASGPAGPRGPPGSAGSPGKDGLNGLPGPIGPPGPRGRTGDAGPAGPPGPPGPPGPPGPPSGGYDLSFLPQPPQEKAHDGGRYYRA
T1 sequence (P02465 80-1117 limits assumed): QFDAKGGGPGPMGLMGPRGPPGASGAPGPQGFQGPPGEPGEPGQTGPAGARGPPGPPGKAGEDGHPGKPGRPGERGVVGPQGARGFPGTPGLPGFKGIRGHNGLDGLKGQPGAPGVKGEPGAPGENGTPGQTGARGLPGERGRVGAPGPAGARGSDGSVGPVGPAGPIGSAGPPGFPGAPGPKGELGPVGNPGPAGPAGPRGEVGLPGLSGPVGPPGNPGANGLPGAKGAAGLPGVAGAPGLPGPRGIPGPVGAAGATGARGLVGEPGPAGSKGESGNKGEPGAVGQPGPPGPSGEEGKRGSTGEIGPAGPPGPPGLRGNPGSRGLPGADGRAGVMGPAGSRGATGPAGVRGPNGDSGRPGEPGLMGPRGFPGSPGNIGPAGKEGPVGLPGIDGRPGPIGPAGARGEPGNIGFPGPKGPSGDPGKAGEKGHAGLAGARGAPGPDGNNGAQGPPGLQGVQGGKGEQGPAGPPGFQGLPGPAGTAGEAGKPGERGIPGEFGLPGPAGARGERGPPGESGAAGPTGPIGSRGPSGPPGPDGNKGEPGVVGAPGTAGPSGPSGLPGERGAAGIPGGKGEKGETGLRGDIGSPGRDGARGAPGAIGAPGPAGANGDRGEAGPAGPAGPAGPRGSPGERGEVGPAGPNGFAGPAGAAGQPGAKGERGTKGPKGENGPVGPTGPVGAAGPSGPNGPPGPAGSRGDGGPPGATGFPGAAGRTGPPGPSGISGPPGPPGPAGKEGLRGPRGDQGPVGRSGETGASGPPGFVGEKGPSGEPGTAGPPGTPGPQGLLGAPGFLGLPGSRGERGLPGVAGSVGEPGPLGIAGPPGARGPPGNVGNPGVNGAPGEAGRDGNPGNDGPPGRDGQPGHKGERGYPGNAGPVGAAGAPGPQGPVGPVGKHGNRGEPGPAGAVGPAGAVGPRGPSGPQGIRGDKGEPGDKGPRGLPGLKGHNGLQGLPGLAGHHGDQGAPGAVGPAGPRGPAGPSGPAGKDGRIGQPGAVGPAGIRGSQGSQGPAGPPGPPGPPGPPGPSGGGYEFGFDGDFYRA

One may read the Kd as the constant that tells how readily two partners part at equilibrium. On Type I collagen [1], `CC[C@H](C)[C@H](NC(=O)[C@H](CCCCN)NC(=O)[C@H](CCC(=O)O)NC(=O)[C@H](CCCCN)NC(=O)[C@H](CO)NC(=O)[C@H](CCCCN)NC(=O)[C@H](CCCNC(=N)N)NC(=O)[C@H](Cc1ccccc1)NC(=O)[C@H](Cc1ccccc1)NC(=O)[C@H](CC(=O)O)NC(=O)CNC(=O)[C@H](CC(C)C)NC(=O)[C@@H](N)CC(C)C)C(=O)NCC(=O)N[C@@H](CCCCN)C(=O)N[C@@H](CCC(=O)O)C(=O)N[C@@H](Cc1ccccc1)C(=O)N[C@@H](CCCCN)C(=O)N[C@@H](CCCNC(=N)N)C(=O)N[C@H](C(=O)N[C@H](C(=O)N[C@@H](CCC(N)=O)C(=O)N[C@@H](CCCNC(=N)N)C(=O)N[C@H](C(=O)N[C@@H](CCCCN)C(=O)N[C@@H](CC(=O)O)C(=O)N[C@@H](Cc1ccccc1)C(=O)N[C@@H](CC(C)C)C(=O)N[C@@H](CCCNC(=N)N)C(=O)N[C@@H](CC(N)=O)C(=O)N[C@@H](CC(C)C)C(=O)N[C@H](C(=O)N1CCC[C@H]1C(=O)N[C@@H](CCCNC(=N)N)C(=O)N[C@H](C(=O)N[C@@H](CCC(=O)O)C(=O)N[C@@H](CO)C(=O)O)[C@@H](C)O)C(C)C)[C@@H](C)CC)C(C)C)[C@@H](C)CC` [LL37, reference compound] displayed a dissociation constant (Kd) of 0.08 µM. Compound `CC[C@H](C)[C@H](NC(=O)[C@H](CCCCN)NC(=O)[C@H](CCC(=O)O)NC(=O)[C@H](CCCCN)NC(=O)[C@H](CO)NC(=O)[C@H](CCCCN)NC(=O)[C@H](CCCNC(=N)N)NC(=O)[C@H](Cc1ccccc1)NC(=O)[C@H](Cc1ccccc1)NC(=O)[C@H](CC(=O)O)NC(=O)CNC(=O)[C@H](CC(C)C)NC(=O)[C@@H](N)CC(C)C)C(=O)NCC(=O)N[C@@H](CCCCN)C(=O)N[C@@H](CCC(=O)O)C(=O)N[C@@H](Cc1ccccc1)C(=O)N[C@@H](CCCCN)C(=O)N[C@@H](CCCNC(=N)N)C(=O)N[C@H](C(=O)N[C@H](C(=O)N[C@@H](CCC(N)=O)C(=O)N[C@@H](CCCNC(=N)N)C(=O)N[C@H](C(=O)N[C@@H](CCCCN)C(=O)N[C@@H](CC(=O)O)C(=O)N[C@@H](Cc1ccccc1)C(=O)N[C@@H](CC(C)C)C(=O)N[C@@H](CCCNC(=N)N)C(=O)N[C@@H](CC(N)=O)C(=O)N[C@@H](CC(C)C)C(=O)N[C@H](C(=O)N1CCC[C@H]1C(=O)N[C@@H](CCCNC(=N)N)C(=O)N[C@H](C(=O)N[C@@H](CCC(=O)O)C(=O)N[C@@H](CO)C(=O)N[C@@H](CC(=O)O)C(=O)N[C@@H](Cc1ccc(O)cc1)C(=O)N[C@@H](CCCCN)C(=O)N[C@@H](CC(=O)O)C(=O)N[C@@H](CC(=O)O)C(=O)N[C@@H](CC(=O)O)C(=O)N[C@@H](CC(=O)O)C(=O)N[C@@H](CCCCN)C(=O)N[C@H](C(=O)N[C@@H](CCCCN)C(=O)N[C@@H](CCCCN)C(=O)N[C@H](C(=O)N[C@@H](CC(C)C)C(=O)N[C@@H](CCCNC(=N)N)C(=O)N[C@H](C(=O)O)[C@@H](C)O)[C@@H](C)O)[C@@H](C)O)[C@@H](C)O)C(C)C)[C@@H](C)CC)C(C)C)[C@@H](C)CC` [cCBD-LL37] had a Kd at Type I collagen [1] of 0.049 µM. In series [2], the “structural stability at varying ionic strengths compared with LL37” value is “stronger structural stability at varying ionic strengths when compared with LL37”.

As for DYKDDDDKTKKTLRT [cCBD], the “inhibition of cCBD-LL37 binding to collagen by excess cCBD” value at Type I collagen [3] is reported as “significantly (*p < 0.05) inhibited cCBD-LL37 binding to collagen; also recorded: inhibited cCBD-LL37 binding to collagen but did not completely abrogate the binding”.
